ChEMBL document CHEMBL3593218, “4,6-Substituted-1,3,5-triazin-2(1H)-ones as monocyclic catalytic inhibitors of human DNA topoisomerase IIα targeting the ATP binding site” (Bioorg Med Chem, 2015)
Values joined by “and” are separate entries in the source; they are usually repeats but may differ in a detail not shown here. Equal values may be shown once.

Tests used:
[1] = biological target: T1, DNA topoisomerase 2-alpha (Homo sapiens, UniProt P11388); test: Inhibition of human DNA topoisomerase IIalpha using plasmid pNO1 as a substrate after 30 mins
[2] = biological target: T1, DNA topoisomerase 2-alpha; test: Inhibition of human DNA topoisomerase IIalpha assessed as decatenation of kDNA at 3.9 uM after 90 mins by ethidium bromide staining; set-up: scale not given: the % may be the effect or the level left
[3] = biological target: T1, DNA topoisomerase 2-alpha; test: Inhibition of human DNA topoisomerase IIalpha ATPase activity assessed as residual ATP hydrolysis at 3.9 uM measured up to 60 mins
[4] = biological target: T1, DNA topoisomerase 2-alpha; test: Inhibition of human DNA topoisomerase IIalpha assessed as reduction in enzyme-catalyzed supercoiling of relaxed circular pBR322 DNA by measuring linear DNA level at 50 uM after 60 mins by agarose gel electrophoresis; set-up: scale not given: the % may be the effect or the level left
[5] = biological target: T1, DNA topoisomerase 2-alpha; test: Inhibition of human DNA topoisomerase IIalpha assessed as reduction in enzyme-catalyzed supercoiling of relaxed circular pBR322 DNA by measuring linear DNA level at 500 uM after 60 mins by agarose gel electrophoresis; set-up: scale not given: the % may be the effect or the level left
[6] = biological target: T1, DNA topoisomerase 2-alpha; test: Inhibition of human DNA topoisomerase IIalpha assessed as reduction in enzyme-catalyzed supercoiling of relaxed circular pBR322 DNA by measuring linear DNA level at 31.5 uM after 60 mins by agarose gel electrophoresis in presence of 62.5 uM of etoposide; set-up: scale not given: the % may be the effect or the level left
[7] = Lipophilicity, log P of the compound; type: physicochemical; conditions: octanol/water
[8] = biological target: T1, DNA topoisomerase 2-alpha; test: Inhibition of human DNA topoisomerase IIalpha assessed as reduction in enzyme-catalyzed supercoiling of relaxed circular pBR322 DNA by measuring linear DNA level at 3.9 uM after 60 mins by agarose gel electrophoresis in presence of 50 uM of etoposide; set-up: scale not given: the % may be the effect or the level left
[9] = biological target: T1, DNA topoisomerase 2-alpha; test: Inhibition of human DNA topoisomerase IIalpha assessed as reduction in enzyme-catalyzed supercoiling of relaxed circular pBR322 DNA by measuring linear DNA level at 3.9 uM after 60 mins by agarose gel electrophoresis in presence of 62.5 uM of etoposide; set-up: scale not given: the % may be the effect or the level left
[10] = biological target: T1, DNA topoisomerase 2-alpha; test: Inhibition of human DNA topoisomerase IIalpha assessed as reduction in enzyme-catalyzed supercoiling of relaxed circular pBR322 DNA by measuring linear DNA level at 31.5 uM after 60 mins by agarose gel electrophoresis in presence of 50 uM of etoposide; set-up: scale not given: the % may be the effect or the level left
[11] = biological target: T1, DNA topoisomerase 2-alpha; test: Inhibition of human DNA topoisomerase IIalpha assessed as reduction in enzyme-catalyzed supercoiling of relaxed circular pBR322 DNA by measuring linear DNA level at 125 uM after 60 mins by agarose gel electrophoresis; set-up: scale not given: the % may be the effect or the level left
[12] = biological target: T1, DNA topoisomerase 2-alpha; test: Inhibition of human DNA topoisomerase IIalpha assessed as reduction in enzyme-catalyzed supercoiling of relaxed circular pBR322 DNA by measuring linear DNA level at 31.5 uM after 60 mins by agarose gel electrophoresis; set-up: scale not given: the % may be the effect or the level left
[13] = biological target: T1, DNA topoisomerase 2-alpha; test: Inhibition of human DNA topoisomerase IIalpha ATPase activity assessed as residual ATP hydrolysis at 500 uM measured up to 60 mins
[14] = biological target: T1, DNA topoisomerase 2-alpha; test: Inhibition of human DNA topoisomerase IIalpha assessed as reduction in enzyme-catalyzed supercoiling of relaxed circular pBR322 DNA by measuring linear DNA level at 3.9 uM after 60 mins by agarose gel electrophoresis; set-up: scale not given: the % may be the effect or the level left
[15] = biological target: T1, DNA topoisomerase 2-alpha; test: Inhibition of human DNA topoisomerase IIalpha assessed as reduction in enzyme-catalyzed supercoiling of relaxed circular pBR322 DNA by measuring linear DNA level at 125 uM after 60 mins by agarose gel electrophoresis in presence of 62.5 uM of etoposide; set-up: scale not given: the % may be the effect or the level left
[16] = biological target: T1, DNA topoisomerase 2-alpha; test: Inhibition of human DNA topoisomerase IIalpha assessed as reduction in enzyme-catalyzed supercoiling of relaxed circular pBR322 DNA by measuring linear DNA level after 60 mins by agarose gel electrophoresis
[17] = biological target: T1, DNA topoisomerase 2-alpha; test: Inhibition of human DNA topoisomerase IIalpha assessed as decatenation of kDNA after 90 mins by ethidium bromide staining
[18] = biological target: T1, DNA topoisomerase 2-alpha; test: Inhibition of human DNA topoisomerase IIalpha assessed as reduction in enzyme-catalyzed supercoiling of relaxed circular pBR322 DNA by measuring linear DNA level at 500 uM after 60 mins by agarose gel electrophoresis in presence of 62.5 uM of etoposide; set-up: scale not given: the % may be the effect or the level left
[19] = biological target: T1, DNA topoisomerase 2-alpha; test: Inhibition of human DNA topoisomerase IIalpha assessed as reduction in enzyme-catalyzed supercoiling of relaxed circular pBR322 DNA by measuring linear DNA level at 125 uM after 60 mins by agarose gel electrophoresis in presence of 50 uM of etoposide; set-up: scale not given: the % may be the effect or the level left
[20] = biological target: T1, DNA topoisomerase 2-alpha; test: Inhibition of human DNA topoisomerase IIalpha assessed as reduction in enzyme-catalyzed supercoiling of relaxed circular pBR322 DNA by measuring linear DNA level at 15.625 uM after 60 mins by agarose gel electrophoresis; set-up: scale not given: the % may be the effect or the level left
[21] = biological target: T1, DNA topoisomerase 2-alpha; test: Inhibition of human DNA topoisomerase IIalpha assessed as reduction in enzyme-catalyzed supercoiling of relaxed circular pBR322 DNA by measuring linear DNA level at 62.5 uM after 60 mins by agarose gel electrophoresis; set-up: scale not given: the % may be the effect or the level left
[22] = biological target: T1, DNA topoisomerase 2-alpha; test: Inhibition of human DNA topoisomerase IIalpha ATPase activity assessed as residual ATP hydrolysis at 31.5 uM measured up to 60 mins
[23] = biological target: T1, DNA topoisomerase 2-alpha; test: Inhibition of human DNA topoisomerase IIalpha assessed as reduction in enzyme-catalyzed supercoiling of relaxed circular pBR322 DNA by measuring linear DNA level at 500 uM after 60 mins by agarose gel electrophoresis in presence of 50 uM of etoposide; set-up: scale not given: the % may be the effect or the level left
[24] = biological target: T1, DNA topoisomerase 2-alpha; test: Inhibition of human DNA topoisomerase IIalpha assessed as decatenation of kDNA at 500 uM after 90 mins by ethidium bromide staining; set-up: scale not given: the % may be the effect or the level left
[25] = biological target: T1, DNA topoisomerase 2-alpha; test: Inhibition of human DNA topoisomerase IIalpha assessed as decatenation of kDNA at 125 uM after 90 mins by ethidium bromide staining; set-up: scale not given: the % may be the effect or the level left
[26] = biological target: T1, DNA topoisomerase 2-alpha; test: Inhibition of human DNA topoisomerase IIalpha assessed as decatenation of kDNA at 31.5 uM after 90 mins by ethidium bromide staining; set-up: scale not given: the % may be the effect or the level left
[27] = biological target: T1, DNA topoisomerase 2-alpha; test: Inhibition of human DNA topoisomerase IIalpha ATPase activity assessed as residual ATP hydrolysis at 125 uM measured up to 60 mins
[28] = biological target: T1, DNA topoisomerase 2-alpha; test: Inhibition of human DNA topoisomerase IIalpha assessed as decatenation of kDNA at 62.5 uM after 90 mins by ethidium bromide staining; set-up: scale not given: the % may be the effect or the level left
[29] = biological target: T1, DNA topoisomerase 2-alpha; test: Inhibition of human DNA topoisomerase IIalpha ATPase activity assessed as residual ATP hydrolysis at 62.5 uM measured up to 60 mins
[30] = biological target: T1, DNA topoisomerase 2-alpha; test: Inhibition of human DNA topoisomerase IIalpha assessed as decatenation of kDNA at 15.625 uM after 90 mins by ethidium bromide staining; set-up: scale not given: the % may be the effect or the level left
[31] = biological target: T1, DNA topoisomerase 2-alpha; test: Inhibition of human DNA topoisomerase IIalpha ATPase activity assessed as residual ATP hydrolysis at 15.625 uM measured up to 60 mins

T1 sequence (P11388 whole entry): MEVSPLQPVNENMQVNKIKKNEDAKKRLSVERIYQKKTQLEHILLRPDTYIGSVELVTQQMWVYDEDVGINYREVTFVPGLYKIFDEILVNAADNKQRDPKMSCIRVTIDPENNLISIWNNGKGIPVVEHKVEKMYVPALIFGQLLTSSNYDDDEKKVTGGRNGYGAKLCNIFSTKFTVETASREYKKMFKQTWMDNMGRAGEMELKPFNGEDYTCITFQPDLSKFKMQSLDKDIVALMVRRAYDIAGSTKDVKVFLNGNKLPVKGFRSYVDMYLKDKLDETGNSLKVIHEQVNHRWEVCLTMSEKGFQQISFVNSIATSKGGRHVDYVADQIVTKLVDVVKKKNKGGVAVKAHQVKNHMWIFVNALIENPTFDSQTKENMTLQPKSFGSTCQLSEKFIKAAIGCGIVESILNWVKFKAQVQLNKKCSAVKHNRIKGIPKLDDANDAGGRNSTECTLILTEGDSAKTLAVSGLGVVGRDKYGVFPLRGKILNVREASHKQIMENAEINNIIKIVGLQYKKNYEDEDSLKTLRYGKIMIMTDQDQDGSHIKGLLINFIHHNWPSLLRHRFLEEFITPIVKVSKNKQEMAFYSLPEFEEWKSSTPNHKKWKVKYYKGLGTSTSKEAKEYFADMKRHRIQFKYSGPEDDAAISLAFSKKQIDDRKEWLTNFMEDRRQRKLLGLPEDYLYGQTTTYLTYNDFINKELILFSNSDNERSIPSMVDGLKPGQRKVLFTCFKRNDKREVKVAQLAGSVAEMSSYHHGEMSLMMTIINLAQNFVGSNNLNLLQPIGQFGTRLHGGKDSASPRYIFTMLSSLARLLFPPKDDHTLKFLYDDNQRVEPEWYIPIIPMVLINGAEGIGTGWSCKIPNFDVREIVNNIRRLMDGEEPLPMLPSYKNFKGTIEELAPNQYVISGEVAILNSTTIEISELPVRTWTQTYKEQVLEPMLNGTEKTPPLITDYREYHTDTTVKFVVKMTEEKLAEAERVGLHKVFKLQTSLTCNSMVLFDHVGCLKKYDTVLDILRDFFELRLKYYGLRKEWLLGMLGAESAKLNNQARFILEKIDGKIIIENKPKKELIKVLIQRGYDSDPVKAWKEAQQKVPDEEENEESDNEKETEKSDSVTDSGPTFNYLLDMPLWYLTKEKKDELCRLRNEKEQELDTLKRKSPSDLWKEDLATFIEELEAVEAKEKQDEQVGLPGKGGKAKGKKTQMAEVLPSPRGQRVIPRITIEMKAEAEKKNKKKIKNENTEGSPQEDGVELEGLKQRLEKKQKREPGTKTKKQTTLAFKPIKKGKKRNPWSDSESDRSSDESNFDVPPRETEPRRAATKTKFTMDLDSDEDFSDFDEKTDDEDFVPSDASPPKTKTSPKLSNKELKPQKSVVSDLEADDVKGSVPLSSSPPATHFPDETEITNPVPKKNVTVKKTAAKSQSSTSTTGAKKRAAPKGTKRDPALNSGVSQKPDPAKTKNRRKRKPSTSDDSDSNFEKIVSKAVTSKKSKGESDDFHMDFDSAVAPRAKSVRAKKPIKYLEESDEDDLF

SMILES: Clc1nc(Cl)nc(Nc2ccccc2Br)n1
- IC50 [1]: > 1000 µM

SMILES: O=c1nc(SCc2ccccc2)nc(SCC2CC2)[nH]1
- IC50 [1]: 481 µM

SMILES: CC(C)OC(=O)C(C)NC(=O)c1ccc(Nc2nc(Cl)nc(Cl)n2)cc1 (centres undefined)
- IC50 [1]: > 1000 µM

SMILES: Cc1ccc(-c2nc(S)[nH]c(=O)n2)cc1
- IC50 [1]: > 1000 µM

SMILES: COc1nc(Nc2ccccc2C(=O)N[C@@H](C)C(=O)OCc2ccccc2)nc(N[C@@H](C)C(=O)OCc2ccccc2)n1
- IC50 [1]: > 1000 µM

SMILES: O=c1nc(-c2cccc([N+](=O)[O-])c2)nc(S)[nH]1
- IC50 [1]: > 1000 µM

SMILES: COc1nc(Nc2ccccc2C(=O)O)nc(OC)n1
- IC50 [1]: > 1000 µM

SMILES: Nc1ccc(-c2nc(=S)[nH]c(=O)[nH]2)cc1
- IC50 [1]: > 1000 µM

SMILES: COc1ccc(CNc2nc(Cl)nc(N(C)CCO)n2)cc1
- IC50 [1]: > 1000 µM

SMILES: CCCSc1nc(SCc2ccccc2)[nH]c(=O)n1
- IC50 [1]: > 1000 µM

SMILES: O=c1nc(SCc2ccccc2)nc(SCc2ccc(Cl)cc2)[nH]1
- IC50 [1]: 219 µM

SMILES: O=c1nc(SCc2ccccc2)nc(SCc2ccccc2F)[nH]1
- Activity [2]: 91.5%
- Activity [3]: 86.9%
- Activity [4]: 34.6%
- Activity [5]: 2.3%
- Activity [6]: 18.5%
- logP [7]: 2.7
- Activity [8]: 34.3%
- Activity [9]: 20.6%
- Activity [10]: 33.5%
- Activity [11]: 1.6%
- Activity [12]: 2.3%
- IC50 [1]: 72.5 µM
- Activity [13]: 0%
- Activity [14]: 3%
- Activity [15]: 16.3%
- inhibition [16]: Dose-dependent effect
- inhibition [17]: Dose-dependent effect
- Activity [18]: 1.4%
- Activity [19]: 9.2%
- Activity [20]: 3.1%
- Activity [21]: 2.1% and 18.1%
- Activity [22]: 93.7%
- Activity [23]: 5.3%
- Activity [24]: 0.115%
- Activity [25]: 8.55%
- Activity [26]: 92.6%
- Activity [27]: 0%

SMILES: OCCc1ccccc1Nc1nc(Cl)nc(NCc2ccccc2)n1
- IC50 [1]: > 1000 µM

SMILES: O=c1nc(SCc2ccccc2)nc(SCc2ccccc2[N+](=O)[O-])[nH]1
- IC50 [1]: 377 µM

SMILES: CC(C(C)N1CC(=O)NC(=O)C1)N1CC(=O)NC(=O)C1 (centres undefined)
- Activity [2]: 77.4%
- Activity [3]: 0%
- Activity [28]: 6.05%
- Activity [29]: 0%
- Activity [12]: 2.51%
- Activity [13]: 0% and 18.7%
- Activity [14]: 1.7%
- Activity [30]: 18.2%
- Activity [20]: 3.1%
- Activity [21]: 2.1%
- Activity [22]: 0%
- Activity [31]: 0%
- Activity [26]: 10.8%

SMILES: COc1cccc(CSc2nc(SCc3ccccc3)nc(=O)[nH]2)c1
- IC50 [1]: 485 µM

SMILES: O=c1nc(SCc2ccccc2)nc(SCC2CCC2)[nH]1
- IC50 [1]: > 1000 µM

SMILES: COc1nc(OC)nc(Sc2ccccc2C(=O)N[C@H](CCC(=O)OCc2ccccc2)C(=O)OCc2ccccc2)n1
- IC50 [1]: > 1000 µM

SMILES: CC(C)(C)c1ccccc1Nc1nc(Cl)nc(Cl)n1
- IC50 [1]: > 1000 µM

SMILES: CCCCSc1nc(SCc2ccccc2)nc(=O)[nH]1
- IC50 [1]: 235 µM

SMILES: COC(=O)c1ccccc1Nc1nc(Cl)nc(Cl)n1
- IC50 [1]: > 1000 µM

SMILES: COc1ccc(CCNc2nc(Cl)nc(Cl)n2)cc1OC
- IC50 [1]: > 1000 µM

SMILES: COc1nc(N[C@H](CCC(=O)OCc2ccccc2)C(=O)OCc2ccccc2)nc(OC)n1
- IC50 [1]: > 1000 µM

SMILES: O=c1nc(SCc2ccccc2)nc(SCc2cccc(Cl)c2)[nH]1
- Activity [2]: 87.3%
- Activity [5]: 2.5%
- Activity [28]: 6.05%
- logP [7]: 3.3
- Activity [8]: 34.3%
- Activity [10]: 33.5%
- Activity [11]: 3.5%
- Activity [12]: 1.2%
- IC50 [1]: 54.6 µM
- Activity [14]: 4.4%
- inhibition [16]: Dose-dependent effect
- Activity [30]: 18.2%
- inhibition [17]: Dose-dependent effect
- Activity [19]: 9.2%
- Activity [23]: 5.3%
- Activity [24]: 0%
- Activity [25]: 0%
- Activity [26]: 33.9%
